Laboratory results as given in PubChem BioAssay AID1745844 (Carcinogenic Potency Database (CPDB), 2022).
Active and inactive are the calls of the source. How the calls were made is not given here.

System: rodent lifetime carcinogenesis bioassay, tumor incidence TD50
Assay: carcinogenic potency in animals, long-term in vivo studies, CPDB compilation (AID 1745844)

## C[N+](C)(C)CCCl
mouse, strain B6AKF1, females, oral dosing, site: any site (literature study), lesion: several types, types named in the paper, dosed 76 weeks, study length 76 weeks
  TD50: 33.5 mg/kg/day
mouse, strain B6AKF1, males, oral dosing, site: any site (literature study), lesion: several types, types named in the paper, dosed 76 weeks, study length 76 weeks
  TD50: 21.3 mg/kg/day
mouse, strain B6AKF1, males, oral dosing, site: liver, lesion: hepatoma, dosed 76 weeks, study length 76 weeks
  TD50: 11.4 mg/kg/day
mouse, strain B6C3F1, females, in feed, site: any site (literature study), lesion: several types, types named in the paper, dosed 102 weeks, study length 102 weeks
  carcinogen call: negative (inactive)
mouse, strain B6C3F1, females, oral dosing, site: any site (literature study), lesion: several types, types named in the paper, dosed 76 weeks, study length 76 weeks
  TD50: 57.4 mg/kg/day
mouse, strain B6C3F1, males, in feed, site: any site (literature study), lesion: several types, types named in the paper, dosed 102 weeks, study length 102 weeks
  TD50: 3240 mg/kg/day (inactive)
mouse, strain B6C3F1, males, in feed, site: liver, lesion: hepatocellular adenoma + hepatocellular carcinoma + neoplastic nodule, dosed 102 weeks, study length 102 weeks
  TD50: 599 mg/kg/day
mouse, strain B6C3F1, males, oral dosing, site: any site (literature study), lesion: several types, types named in the paper, dosed 76 weeks, study length 76 weeks
  TD50: 5.19 mg/kg/day
mouse, strain B6C3F1, males, oral dosing, site: liver, lesion: hepatoma, dosed 76 weeks, study length 76 weeks
  TD50: 9.38 mg/kg/day
rat, strain Fischer 344, females, in feed, site: any site (literature study), lesion: several types, types named in the paper, dosed 108 weeks, study length 108 weeks
  carcinogen call: negative (inactive)
rat, strain Fischer 344, females, in feed, site: liver, lesion: hepatocellular adenoma + hepatocellular carcinoma + neoplastic nodule, dosed 108 weeks, study length 108 weeks
  TD50: 8090 mg/kg/day
rat, strain Fischer 344, males, in feed, site: any site (literature study), lesion: several types, types named in the paper, dosed 108 weeks, study length 108 weeks
  TD50: 3360 mg/kg/day
rat, strain Fischer 344, males, in feed, site: pancreatic islets, lesion: islet-cell adenoma, dosed 108 weeks, study length 108 weeks
  TD50: 458 mg/kg/day (inactive)

## CN(C)CCN(Cc1cccs1)c1ccccn1
hamster, strain Syrian Golden, males, by gavage, site: liver, lesion: neoplastic nodule, dosed 58 weeks, study length 61 weeks
  TD50: 150 mg/kg/day
rat, strain Fischer 344, females, in feed, site: liver, lesion: hepatocellular carcinoma, dosed 110 weeks, study length 133 weeks
  TD50: 61.6 mg/kg/day
rat, strain Fischer 344, females, in feed, site: liver, lesion: neoplastic nodule, dosed 110 weeks, study length 133 weeks
  TD50: 11.8 mg/kg/day
rat, strain Fischer 344, females, in feed, site: liver, lesion: several types, types named in the paper, dosed 110 weeks, study length 133 weeks
  TD50: 7.65 mg/kg/day
rat, strain Fischer 344, males, in feed, site: liver, lesion: basophil adenoma, dosed 73 weeks, study length 73 weeks
  carcinogen call: positive
rat, strain Fischer 344, males, in feed, site: liver, lesion: cholangiocarcinoma, dosed 110 weeks, study length 133 weeks
  TD50: 400 mg/kg/day
rat, strain Fischer 344, males, in feed, site: liver, lesion: eosinophilic adenoma, dosed 73 weeks, study length 73 weeks
  carcinogen call: positive
rat, strain Fischer 344, males, in feed, site: liver, lesion: hepatocellular carcinoma, solid, dosed 73 weeks, study length 73 weeks
  TD50: 26.4 mg/kg/day
rat, strain Fischer 344, males, in feed, site: liver, lesion: hepatocellular carcinoma, trabecular, dosed 73 weeks, study length 73 weeks
  TD50: 26.4 mg/kg/day
rat, strain Fischer 344, males, in feed, site: liver, lesion: hepatocellular carcinoma, dosed 73 weeks, study length 73 weeks
  TD50: 14.7 mg/kg/day
rat, strain Fischer 344, males, in feed, site: liver, lesion: hepatocellular carcinoma, dosed 110 weeks, study length 133 weeks
  TD50: 77 mg/kg/day
rat, strain Fischer 344, males, in feed, site: liver, lesion: neoplastic nodule, dosed 110 weeks, study length 133 weeks
  TD50: 11.1 mg/kg/day
rat, strain Fischer 344, males, in feed, site: liver, lesion: several types, types named in the paper, dosed 110 weeks, study length 133 weeks
  TD50: 7.7 mg/kg/day

## C=CC(OC(C)=O)c1ccc2c(c1)OCO2 (configuration not stated)
rat, strain Charles River CD (Sprague-Dawley), males, in feed, site: any site (literature study), lesion: several types, types named in the paper, dosed 36 weeks, study length 52 weeks
  TD50: 21.1 mg/kg/day
rat, strain Charles River CD (Sprague-Dawley), males, in feed, site: any site (literature study), lesion: several types, types named in the paper, dosed 47 weeks, study length 69 weeks
  TD50: 32.4 mg/kg/day
rat, strain Charles River CD (Sprague-Dawley), males, in feed, site: forestomach, lesion: papilloma, dosed 36 weeks, study length 52 weeks
  TD50: 21.1 mg/kg/day
rat, strain Charles River CD (Sprague-Dawley), males, in feed, site: forestomach, lesion: papilloma, dosed 47 weeks, study length 69 weeks
  TD50: 30.7 mg/kg/day
rat, strain Charles River CD (Sprague-Dawley), males, in feed, site: liver, lesion: carcinoma, dosed 47 weeks, study length 69 weeks
  carcinogen call: negative (inactive)
rat, strain Charles River CD (Sprague-Dawley), males, in feed, site: liver, lesion: hepatocellular carcinoma, dosed 36 weeks, study length 52 weeks
  TD50: 348 mg/kg/day (inactive)

## O=S(=O)(O)NC1CCCCC1
monkey, strain Cynomolgus [Macaca fascicularis], both sexes, in feed, site: liver, lesion: hepatocellular carcinoma, dosed 1238 weeks, study length 1238 weeks
  TD50: 1250 mg/kg/day
monkey, strain Cynomolgus [Macaca fascicularis], both sexes, in feed, site: prostate, lesion: adenocarcinoma, dosed 1238 weeks, study length 1238 weeks
  TD50: 35.6 mg/kg/day
monkey, strain Rhesus [Macaca mulatta], both sexes, in feed, site: any site (literature study), lesion: malignant tumor, dosed 1251 weeks, study length 1251 weeks
  TD50: 3160 mg/kg/day
monkey, strain Rhesus [Macaca mulatta], both sexes, in feed, site: colon, lesion: adenocarcinoma, dosed 1251 weeks, study length 1251 weeks
  TD50: 764 mg/kg/day
monkey, strain Rhesus [Macaca mulatta], both sexes, in feed, site: thyroid gland, lesion: papillary adenoma, dosed 1251 weeks, study length 1251 weeks
  TD50: 182 mg/kg/day
mouse, strain (C3H x RIII)F1 (MTV+), males, in drinking water, site: any site (literature study), lesion: several types, types named in the paper, dosed 104 weeks, study length 104 weeks
  TD50: 772 mg/kg/day
mouse, strain (C3H x RIII)F1 (MTV+), males, in drinking water, site: liver, lesion: several types, types named in the paper, dosed 104 weeks, study length 104 weeks
  TD50: 1420 mg/kg/day
mouse, strain (C3H x RIII)F1 (MTV+), males, in drinking water, site: lung, lesion: several types, types named in the paper, dosed 104 weeks, study length 104 weeks
  TD50: 4380 mg/kg/day
mouse, strain ASH-CS1, females, in feed, site: liver, lesion: one or several types, types not named, dosed 80 weeks, study length 82 weeks
  carcinogen call: negative (inactive)
mouse, strain ASH-CS1, females, in feed, site: lung, lesion: adenoma, dosed 80 weeks, study length 82 weeks
  TD50: 228000 mg/kg/day (inactive)
mouse, strain ASH-CS1, females, in feed, site: reticuloendothelium, lesion: lymphosarcoma, dosed 80 weeks, study length 82 weeks
  TD50: 16700 mg/kg/day (inactive)
mouse, strain ASH-CS1, males, in feed, site: liver, lesion: one or several types, types not named, dosed 80 weeks, study length 82 weeks
  carcinogen call: negative (inactive)
mouse, strain ASH-CS1, males, in feed, site: lung, lesion: adenoma, dosed 80 weeks, study length 82 weeks
  carcinogen call: negative (inactive)
mouse, strain RIII (MTV+), males, in drinking water, site: any site (literature study), lesion: several types, types named in the paper, dosed 104 weeks, study length 104 weeks
  TD50: 4670 mg/kg/day
mouse, strain RIII (MTV+), males, in drinking water, site: lung, lesion: several types, types named in the paper, dosed 104 weeks, study length 104 weeks
  TD50: 4670 mg/kg/day
mouse, strain Swiss albino, females, in feed, site: liver, lesion: hepatoma, dosed 76 weeks, study length 76 weeks
  carcinogen call: negative (inactive)
mouse, strain Swiss, females, in feed, site: urinary bladder, lesion: anaplastic carcinoma, dosed 91 weeks, study length 91 weeks
  carcinogen call: negative (inactive)
mouse, strain Swiss, males, in feed, site: urinary bladder, lesion: one or several types, types not named, dosed 91 weeks, study length 91 weeks
  carcinogen call: negative (inactive)
mouse, strain XVII/G, females, in drinking water, site: any site (literature study), lesion: several types, types named in the paper, dosed 104 weeks, study length 104 weeks
  TD50: 587 mg/kg/day
mouse, strain XVII/G, females, in drinking water, site: liver, lesion: several types, types named in the paper, dosed 104 weeks, study length 104 weeks
  TD50: 16000 mg/kg/day
mouse, strain XVII/G, females, in drinking water, site: lung, lesion: several types, types named in the paper, dosed 104 weeks, study length 104 weeks
  TD50: 587 mg/kg/day
rat, strain Sprague-Dawley, both sexes, in feed, site: any site (literature study), lesion: malignant tumor, dosed 130 weeks, study length 130 weeks
  TD50: 30700 mg/kg/day (inactive)
rat, strain Sprague-Dawley, both sexes, in feed, site: urinary bladder, lesion: papilloma, dosed 130 weeks, study length 130 weeks
  carcinogen call: negative (inactive)
rat, strain Sprague-Dawley, both sexes, in feed, site: urinary bladder, lesion: transitional-cell carcinoma, dosed 130 weeks, study length 130 weeks
  carcinogen call: negative (inactive)
rat, strain Wistar, both sexes, in feed, site: urinary bladder, lesion: one or several types, types not named, dosed 104 weeks, study length 104 weeks
  TD50: 83900 mg/kg/day

## CC(C)(C)NC[C@H](O)COc1cccc2c1CCCC2=O
mouse, strain CF-1, females, in feed, site: liver, lesion: hepatoma, dosed 78 weeks, study length 78 weeks
  TD50: 5010 mg/kg/day
mouse, strain CF-1, females, in feed, site: lung, lesion: alveogenic adenocarcinoma, dosed 78 weeks, study length 78 weeks
  TD50: 2500 mg/kg/day
mouse, strain CF-1, females, in feed, site: uterus, lesion: leiomyoma, dosed 78 weeks, study length 78 weeks
  TD50: 1220 mg/kg/day
rat, strain Wistar albino, females, in feed, site: liver, lesion: hepatoma, benign, dosed 104 weeks, study length 104 weeks
  TD50: 2360 mg/kg/day
rat, strain Wistar albino, females, in feed, site: mammary gland, lesion: fibroadenoma, dosed 104 weeks, study length 104 weeks
  TD50: 71 mg/kg/day
rat, strain Wistar albino, males, in feed, site: liver, lesion: hepatoma, benign, dosed 104 weeks, study length 104 weeks
  TD50: 982 mg/kg/day
rat, strain Wistar albino, males, in feed, site: pituitary gland, lesion: adenoma, dosed 104 weeks, study length 104 weeks
  TD50: 71.9 mg/kg/day

## Cc1ccc(S(=O)(=O)OCCN(C)N=O)cc1
rat, strain Fischer 344, females, by gavage, site: liver, lesion: hemangiosarcoma, dosed 121 weeks, study length 121 weeks
  TD50: 12.8 mg/kg/day
rat, strain Fischer 344, females, by gavage, site: liver, lesion: hepatocellular carcinoma, dosed 121 weeks, study length 121 weeks
  TD50: 7.55 mg/kg/day
rat, strain Fischer 344, females, by gavage, site: liver, lesion: neoplastic nodule, dosed 121 weeks, study length 121 weeks
  TD50: 22.3 mg/kg/day
rat, strain Fischer 344, females, by gavage, site: liver, lesion: several types, types named in the paper, dosed 121 weeks, study length 121 weeks
  TD50: 3.47 mg/kg/day
rat, strain Fischer 344, males, by gavage, site: liver, lesion: hemangiosarcoma, dosed 121 weeks, study length 121 weeks
  TD50: 11.8 mg/kg/day
rat, strain Fischer 344, males, by gavage, site: liver, lesion: hepatocellular carcinoma, dosed 121 weeks, study length 121 weeks
  TD50: 32.2 mg/kg/day
rat, strain Fischer 344, males, by gavage, site: liver, lesion: neoplastic nodule, dosed 121 weeks, study length 121 weeks
  TD50: 12.6 mg/kg/day
rat, strain Fischer 344, males, by gavage, site: liver, lesion: several types, types named in the paper, dosed 121 weeks, study length 121 weeks
  TD50: 7.79 mg/kg/day
rat, strain Fischer 344, males, by gavage, site: pituitary gland, lesion: adenoma, dosed 121 weeks, study length 121 weeks
  TD50: 11.1 mg/kg/day
rat, strain Fischer 344, males, by gavage, site: testis, lesion: interstitial-cell tumor, dosed 121 weeks, study length 121 weeks
  TD50: 11.1 mg/kg/day

## CNC(=S)N(C)C
mouse, strain B6C3F1, females, in feed, site: any site (literature study), lesion: several types, types named in the paper, dosed 77 weeks, study length 91 weeks
  TD50: 1970 mg/kg/day (inactive)
mouse, strain B6C3F1, females, in feed, site: lung, lesion: alveolar/bronchiolar adenoma + alveolar/bronchiolar carcinoma, dosed 77 weeks, study length 91 weeks
  TD50: 1260 mg/kg/day
mouse, strain B6C3F1, males, in feed, site: any site (literature study), lesion: several types, types named in the paper, dosed 77 weeks, study length 91 weeks
  carcinogen call: negative (inactive)
mouse, strain B6C3F1, males, in feed, site: lung, lesion: alveolar/bronchiolar adenoma + alveolar/bronchiolar carcinoma, dosed 77 weeks, study length 91 weeks
  TD50: 478 mg/kg/day
rat, strain Fischer 344, females, in feed, site: any site (literature study), lesion: several types, types named in the paper, dosed 77 weeks, study length 106 weeks
  TD50: 17.4 mg/kg/day
rat, strain Fischer 344, females, in feed, site: thyroid gland, lesion: follicular-cell adenoma + follicular-cell carcinoma, dosed 77 weeks, study length 106 weeks
  TD50: 25.8 mg/kg/day
rat, strain Fischer 344, females, in feed, site: thyroid gland, lesion: follicular-cell carcinoma, dosed 77 weeks, study length 106 weeks
  TD50: 45 mg/kg/day
rat, strain Fischer 344, males, in feed, site: any site (literature study), lesion: several types, types named in the paper, dosed 77 weeks, study length 106 weeks
  carcinogen call: negative (inactive)
